These results are taken from patent publication US20250009739A1, “METHOD OF TREATING A SKIN DISORDER” (PHAMRI Norden AB, priority 2021, published 2025).

Structures are written as SMILES.

Data set [1] deals with ENaC. The conditions noted are these: cited from earlier work.
A further data set addresses NCX (Homo sapiens, UniProt P32418). The conditions noted are these: cited from earlier work.
For data set [2] the following is noted: human oral dosing 10 mg, adults; cited from earlier work.
The next data set relates to CXCL1. The experiment in a line: CXCL1 expression in TNFα-stimulated primary keratinocytes (Luminex on supernatant). The class given is cell-based, human. The conditions noted are these: CXCL1, IL1a and TNFα in TNFα-stimulated keratinocytes; concentration where ENaC, NCX1 and NHE1 were predicted to be targeted. The procedure: Primary keratinocytes were stimulated with TNFα (5 ng/ml) for 24 hours and expression of pro-inflammatory cytokines involved in inflammatory skin disease was analyzed with benzamil as inhibitor and compared to inhibitors with different affinity to ENaC/NCX1/NHE1 (amiloride), ENaC but not NCX1 and NHE1 (Camostat mesilate), NCX1 but not ENaC or NHE1 (KB-R7943) or NHE but not ENaC or NCX1 (zoniporide).
Primary human keratinocytes were thawed according to manufacturer's instructions, washed in growth medium (GM) and viability assessed via Tryphan blue. Cells were incubated at 37° C. with 5% CO2. After confluence, a stock cell solution of 1.5×10^5 cells/ml was prepared in GM. 200 μL of the cell suspension was added to each well of respective 96 well plates for a total of 3×10^4 cells/well. Cells were incubated at 37° C. with 5% CO2 overnight for adherence. After overnight incubation, cell culture media was removed from each well and 100 μL of fresh GM was added to each well. Appropriate concentrations of inhibitor compound, vehicle and TNFα was prepared in GM of a final volume of 3 ml. […]
100 μl of each treatment was added to appropriate wells. […] 24 hours post TNFα stimulation, the fluorescence of each well was read at 544/590 nm for cell viability. […] The inflammatory cytokines TNFα, CXCL1 and IL1a in the cell culture supernatants were analysed by Luiminex. […]

Data set [3] concerns Primary human keratinocytes. The data set can be described thus: Proliferation / cell viability (alamar blue) of TNFα-stimulated keratinocytes. The class given is cell-based. The conditions noted are these: low-level inflamed keratinocyte conditions (TNFα 5 ng/ml, 24 hours). The procedure:
Primary human keratinocytes were thawed according to manufacturer's instructions, washed in growth medium (GM) and viability assessed via Tryphan blue. Cells were incubated at 37° C. with 5% CO2. After confluence, a stock cell solution of 1.5×10^5 cells/ml was prepared in GM. 200 μL of the cell suspension was added to each well of respective 96 well plates for a total of 3×10^4 cells/well. Cells were incubated at 37° C. with 5% CO2 overnight for adherence. After overnight incubation, cell culture media was removed from each well and 100 μL of fresh GM was added to each well. Appropriate concentrations of inhibitor compound, vehicle and TNFα was prepared in GM of a final volume of 3 ml. Concentrations of non-benzamil inhibitors were chosen to be 0.1×, 1× and 10× the IC50 for each primary target. […] Concentration of TNF alpha was selected to recapitulate a low level of pro-inflammatory cytokine stimulation.
100 μl of each treatment was added to appropriate wells. Samples were incubated for 24 hours. 20 hours post TNFα stimulation, 20 μL of alamar blue was added for each well. Cells were incubated for 4 hours at 37° C. 24 hours post TNFα stimulation, the fluorescence of each well was read at 544/590 nm for cell viability. […] The inflammatory cytokines TNFα, CXCL1 and IL1a in the cell culture supernatants were analysed by Luiminex. […]

For data set [4], the system named is ENaC. The conditions noted are these: cited from earlier work. The source holds these as a separate data set.

As for `CN(C)C(=O)COC(=O)Cc1ccc(OC(=O)c2ccc(NC(=N)N)cc2)cc1` [Camostat Mesilate, Camostat mesilate], the IC50 – broadly, the concentration at which inhibition is half-maximal – with ENaC [1] is 0.05 µM. In the case of `N=C(N)SCCc1ccc(OCc2ccc([N+](=O)[O-])cc2)cc1` [KB-R7943], the IC50 at NCX was 5 to 10 µM.

`N=C(N)NC(=O)c1nc(Cl)c(N)nc1N` [amiloride]: in the data set with ENaC [1], the half-inhibitory concentration (IC50) is 0.1 µM. Moreover, in data set [2], the serum concentration was 20.6 ng/mL.

Turning to `NC(=NCc1ccccc1)NC(=O)c1nc(Cl)c(N)nc1N` [benzamil], the “efficacious concentration for reducing cytokine expression” value in the data set on CXCL1 was “above 1 uM”. Besides, the proliferation result was “does not reduce proliferation” in data set [3] (FIG. 6) and “did not reduce proliferation” in data set [3] (FIG. 6, listed as Benzamil). As for `NC(=Nc1ccccc1)NC(=O)c1nc(Cl)c(N)nc1N` [phenamil], the “in vivo efficacy specifically on ENaC relative to amiloride” value in the data set on ENaC [4] is “equivalent to amiloride”.
